Assay results taken from patent US12421232B2, “Kinase inhibitor compounds and compositions and methods of use” (ICAHN SCHOOL OF MEDICINE AT MOUNT SINAI, priority 2018, dated 2025).

Assays:
HIPK2 = target: T1, HIPK2 (Homo sapiens, UniProt Q9H2X6); test: KINOMEscan Assay (DiscoverX); format: binding; conditions: HIPK2; 10 μM
T1 construct: purchased DiscoverX

VPS34 = target: T2, VPS34 (Homo sapiens, UniProt Q8NEB9); test: KINOMEscan Assay (DiscoverX); format: binding; conditions: VPS34; 10 μM
T2 construct: purchased DiscoverX

[1] = target: T3, JAK3(JH1DOMAIN-CATALYTIC) (Homo sapiens, UniProt P52333); test: KINOMEscan Assay (DiscoverX); format: binding; conditions: JAK3(JH1DOMAIN-[…]); 10 μM; read-out: % DMSO Ctrl
T3 construct: JH1DOMAIN; purchased DiscoverX

PIK3CG = target: T4, PIK3CG (Homo sapiens, UniProt P48736); test: KINOMEscan Assay (DiscoverX); format: binding; conditions: read-out: % DMSO Ctrl
T4 construct: purchased DiscoverX

FLT3(D835V) = target: T5, FLT3(D835V) (Homo sapiens, UniProt P36888, D835V); test: KINOMEscan Assay (DiscoverX); format: binding; conditions: FLT3(D835V) mutant; 10 μM; read-out: % DMSO Ctrl
T5 construct: purchased DiscoverX
T5 sequence (P36888 27-993 D835V): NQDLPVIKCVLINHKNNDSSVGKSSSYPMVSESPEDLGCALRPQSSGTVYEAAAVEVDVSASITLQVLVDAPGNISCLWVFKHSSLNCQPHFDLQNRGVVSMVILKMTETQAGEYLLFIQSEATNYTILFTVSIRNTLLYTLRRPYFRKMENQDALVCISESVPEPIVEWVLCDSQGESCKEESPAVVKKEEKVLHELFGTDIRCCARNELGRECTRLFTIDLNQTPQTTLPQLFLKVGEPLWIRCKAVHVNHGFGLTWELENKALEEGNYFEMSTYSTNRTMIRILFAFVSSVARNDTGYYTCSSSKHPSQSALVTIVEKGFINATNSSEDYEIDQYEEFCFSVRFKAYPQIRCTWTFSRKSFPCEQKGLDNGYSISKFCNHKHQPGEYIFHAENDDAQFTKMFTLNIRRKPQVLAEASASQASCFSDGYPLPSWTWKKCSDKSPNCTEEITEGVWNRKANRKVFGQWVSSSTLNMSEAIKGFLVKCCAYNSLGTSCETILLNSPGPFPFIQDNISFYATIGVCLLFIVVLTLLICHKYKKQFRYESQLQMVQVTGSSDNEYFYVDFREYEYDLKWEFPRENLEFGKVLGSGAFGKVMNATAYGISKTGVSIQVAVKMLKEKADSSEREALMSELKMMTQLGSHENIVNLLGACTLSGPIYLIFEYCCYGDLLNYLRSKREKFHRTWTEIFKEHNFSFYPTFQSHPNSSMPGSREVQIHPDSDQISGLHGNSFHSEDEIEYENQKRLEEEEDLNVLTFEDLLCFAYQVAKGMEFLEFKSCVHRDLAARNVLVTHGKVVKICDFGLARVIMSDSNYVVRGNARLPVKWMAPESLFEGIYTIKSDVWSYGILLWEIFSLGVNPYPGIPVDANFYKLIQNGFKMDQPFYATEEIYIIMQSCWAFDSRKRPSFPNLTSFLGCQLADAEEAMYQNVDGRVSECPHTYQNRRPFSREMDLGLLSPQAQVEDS

CSNK1G2 = target: T6, CSNK1G2 (Homo sapiens, UniProt P78368); test: KINOMEscan Assay (DiscoverX); format: binding; conditions: CSNK1G2; 10 μM
T6 construct: purchased DiscoverX

[2] = tested on: NFAT2-GFP nuclear translocation in R7T1 rodent beta cells; test: NFAT2 translocation assay; format: cell-based; conditions: 10 μM, 24 hours
From the text: NFAT2T Translocation Assay. […] At least 1000 cells were counted.

PIM3 = target: T7, PIM3 (Homo sapiens, UniProt Q86V86); test: KINOMEscan Assay (DiscoverX); format: binding; conditions: PIM3; 10 μM; read-out: % DMSO Ctrl
T7 construct: purchased DiscoverX

HIPK3 = target: T8, HIPK3 (Homo sapiens, UniProt Q9H422); test: KINOMEscan Assay (DiscoverX); format: binding; conditions: HIPK3; 10 μM
T8 construct: purchased DiscoverX

IRAK1 = target: T9, IRAK1 (Homo sapiens, UniProt P51617); test: KINOMEscan Assay (DiscoverX); format: binding; conditions: IRAK1; 10 μM
T9 construct: purchased DiscoverX

CSNK2A1 = target: T10, CSNK2A1 (Homo sapiens, UniProt P68400); test: KINOMEscan Assay (DiscoverX); format: binding; conditions: CSNK2A1; 10 μM
T10 construct: purchased DiscoverX

[3] = tested on: human β-cells (dispersed human islet cells); test: Human β-cell proliferation assay (Ki67 and insulin staining); format: cell-based; conditions: for Human β-Cell proliferation: 96 hours
DYRK1A = DYRK1A (Homo sapiens, UniProt Q13627); test: FRET-based LanthaScreen Eu Kinase Binding Assay (Life Technologies)
FLT3(ITD,D835V) = test: KINOMEscan Assay (DiscoverX); format: binding; conditions: FLT3(ITD,D835V) mutant; 10 μM
FLT3(ITD) = test: KINOMEscan Assay (DiscoverX); format: binding; conditions: FLT3(ITD) mutant; 10 μM
[4] = 10 μM, KI67 labeling of insulin cells

T6 sequence (P78368 whole entry): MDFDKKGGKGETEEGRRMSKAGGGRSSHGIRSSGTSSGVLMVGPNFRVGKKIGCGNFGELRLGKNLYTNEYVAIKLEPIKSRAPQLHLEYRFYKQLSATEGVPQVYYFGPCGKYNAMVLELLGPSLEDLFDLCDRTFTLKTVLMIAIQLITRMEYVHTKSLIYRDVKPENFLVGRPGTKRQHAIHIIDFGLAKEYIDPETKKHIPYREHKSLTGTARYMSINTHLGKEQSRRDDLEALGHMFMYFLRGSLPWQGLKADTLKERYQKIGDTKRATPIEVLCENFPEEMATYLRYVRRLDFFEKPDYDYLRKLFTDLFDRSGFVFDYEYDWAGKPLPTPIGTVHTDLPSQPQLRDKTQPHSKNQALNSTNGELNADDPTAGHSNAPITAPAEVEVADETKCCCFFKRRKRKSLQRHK
T1 sequence (Q9H2X6 whole entry): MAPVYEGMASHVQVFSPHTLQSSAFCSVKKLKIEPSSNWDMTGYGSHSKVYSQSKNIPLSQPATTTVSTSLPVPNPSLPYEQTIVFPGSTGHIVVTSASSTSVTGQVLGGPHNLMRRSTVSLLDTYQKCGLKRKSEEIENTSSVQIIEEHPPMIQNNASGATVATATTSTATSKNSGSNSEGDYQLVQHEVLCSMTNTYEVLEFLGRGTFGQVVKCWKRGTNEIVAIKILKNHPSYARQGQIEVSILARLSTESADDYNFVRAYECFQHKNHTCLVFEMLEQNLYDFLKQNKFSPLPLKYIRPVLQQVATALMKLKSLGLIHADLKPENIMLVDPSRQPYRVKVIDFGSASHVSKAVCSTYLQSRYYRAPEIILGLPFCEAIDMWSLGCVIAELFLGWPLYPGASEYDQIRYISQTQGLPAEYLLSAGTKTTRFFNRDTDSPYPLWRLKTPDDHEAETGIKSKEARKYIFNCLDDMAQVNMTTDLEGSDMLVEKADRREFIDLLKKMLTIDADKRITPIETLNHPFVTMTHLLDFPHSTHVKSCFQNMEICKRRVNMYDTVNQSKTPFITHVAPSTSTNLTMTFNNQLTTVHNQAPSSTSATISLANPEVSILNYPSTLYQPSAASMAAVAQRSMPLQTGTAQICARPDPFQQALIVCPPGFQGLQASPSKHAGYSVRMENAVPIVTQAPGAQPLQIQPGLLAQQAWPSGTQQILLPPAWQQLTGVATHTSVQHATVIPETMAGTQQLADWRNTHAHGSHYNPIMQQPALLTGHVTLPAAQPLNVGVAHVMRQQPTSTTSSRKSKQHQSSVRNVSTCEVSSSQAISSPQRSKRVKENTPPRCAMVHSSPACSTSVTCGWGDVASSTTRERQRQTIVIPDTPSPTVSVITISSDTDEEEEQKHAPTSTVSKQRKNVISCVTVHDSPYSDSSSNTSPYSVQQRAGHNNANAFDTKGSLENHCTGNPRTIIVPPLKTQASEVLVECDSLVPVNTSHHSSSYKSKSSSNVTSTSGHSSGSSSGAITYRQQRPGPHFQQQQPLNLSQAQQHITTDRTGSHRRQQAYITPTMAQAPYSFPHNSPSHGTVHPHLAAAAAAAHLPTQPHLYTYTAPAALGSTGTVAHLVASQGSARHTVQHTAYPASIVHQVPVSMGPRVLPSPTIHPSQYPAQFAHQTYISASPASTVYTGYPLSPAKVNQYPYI
T8 sequence (Q9H422 whole entry): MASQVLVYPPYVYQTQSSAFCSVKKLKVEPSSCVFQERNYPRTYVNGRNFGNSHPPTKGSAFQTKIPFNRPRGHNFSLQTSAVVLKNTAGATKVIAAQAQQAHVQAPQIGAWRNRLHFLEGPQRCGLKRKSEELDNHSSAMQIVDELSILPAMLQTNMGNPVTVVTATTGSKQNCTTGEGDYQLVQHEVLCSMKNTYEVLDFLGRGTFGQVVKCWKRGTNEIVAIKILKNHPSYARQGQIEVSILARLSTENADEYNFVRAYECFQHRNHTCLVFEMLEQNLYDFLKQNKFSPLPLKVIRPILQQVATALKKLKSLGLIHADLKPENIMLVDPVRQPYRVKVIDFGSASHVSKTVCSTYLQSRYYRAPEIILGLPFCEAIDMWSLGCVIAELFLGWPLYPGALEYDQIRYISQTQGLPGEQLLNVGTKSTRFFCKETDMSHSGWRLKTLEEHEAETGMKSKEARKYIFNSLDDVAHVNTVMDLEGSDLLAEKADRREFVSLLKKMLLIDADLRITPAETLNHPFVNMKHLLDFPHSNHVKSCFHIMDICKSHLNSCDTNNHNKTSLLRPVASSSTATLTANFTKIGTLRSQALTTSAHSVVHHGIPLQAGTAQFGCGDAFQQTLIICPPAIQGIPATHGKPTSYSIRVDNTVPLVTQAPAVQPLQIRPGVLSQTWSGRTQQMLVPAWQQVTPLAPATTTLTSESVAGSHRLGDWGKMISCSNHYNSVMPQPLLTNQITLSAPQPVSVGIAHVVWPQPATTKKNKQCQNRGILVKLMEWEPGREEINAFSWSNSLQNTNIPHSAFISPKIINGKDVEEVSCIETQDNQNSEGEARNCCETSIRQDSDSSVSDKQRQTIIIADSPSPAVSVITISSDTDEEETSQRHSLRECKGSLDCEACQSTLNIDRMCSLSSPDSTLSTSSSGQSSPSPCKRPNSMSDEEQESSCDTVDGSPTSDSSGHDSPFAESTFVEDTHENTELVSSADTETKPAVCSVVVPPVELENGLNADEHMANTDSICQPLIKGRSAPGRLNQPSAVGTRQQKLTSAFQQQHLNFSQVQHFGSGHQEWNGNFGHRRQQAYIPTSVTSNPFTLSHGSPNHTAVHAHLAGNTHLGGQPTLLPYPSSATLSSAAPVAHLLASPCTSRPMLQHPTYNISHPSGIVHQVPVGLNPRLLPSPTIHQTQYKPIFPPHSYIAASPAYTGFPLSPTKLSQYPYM
T4 sequence (P48736 whole entry): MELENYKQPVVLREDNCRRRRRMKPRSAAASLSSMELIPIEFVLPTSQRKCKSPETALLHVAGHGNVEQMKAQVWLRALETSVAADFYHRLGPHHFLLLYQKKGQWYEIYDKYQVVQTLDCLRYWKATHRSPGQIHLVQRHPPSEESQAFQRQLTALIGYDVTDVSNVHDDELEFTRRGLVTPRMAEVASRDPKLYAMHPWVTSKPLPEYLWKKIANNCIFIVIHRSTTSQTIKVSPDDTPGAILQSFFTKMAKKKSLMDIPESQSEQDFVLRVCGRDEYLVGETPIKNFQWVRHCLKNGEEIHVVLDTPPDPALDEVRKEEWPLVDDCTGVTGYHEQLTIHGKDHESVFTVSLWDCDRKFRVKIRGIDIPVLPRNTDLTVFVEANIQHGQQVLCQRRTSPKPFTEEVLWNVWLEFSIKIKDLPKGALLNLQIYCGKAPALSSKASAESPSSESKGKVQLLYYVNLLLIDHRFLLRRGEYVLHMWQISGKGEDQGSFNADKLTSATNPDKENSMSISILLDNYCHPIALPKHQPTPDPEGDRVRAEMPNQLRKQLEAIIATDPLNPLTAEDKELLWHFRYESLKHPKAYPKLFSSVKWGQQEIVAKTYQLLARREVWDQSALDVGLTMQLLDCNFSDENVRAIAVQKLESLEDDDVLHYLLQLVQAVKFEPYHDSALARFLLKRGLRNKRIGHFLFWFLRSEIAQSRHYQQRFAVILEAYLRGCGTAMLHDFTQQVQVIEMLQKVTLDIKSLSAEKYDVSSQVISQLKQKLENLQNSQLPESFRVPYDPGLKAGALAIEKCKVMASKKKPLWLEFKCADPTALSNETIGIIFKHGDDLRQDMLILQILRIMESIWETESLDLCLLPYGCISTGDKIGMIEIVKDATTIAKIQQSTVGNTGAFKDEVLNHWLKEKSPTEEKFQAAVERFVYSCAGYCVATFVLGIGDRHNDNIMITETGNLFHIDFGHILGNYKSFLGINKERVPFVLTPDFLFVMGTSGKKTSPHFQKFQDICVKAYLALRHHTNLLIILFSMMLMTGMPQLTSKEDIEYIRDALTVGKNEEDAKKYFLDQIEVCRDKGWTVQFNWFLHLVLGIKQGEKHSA
T10 sequence (P68400 whole entry): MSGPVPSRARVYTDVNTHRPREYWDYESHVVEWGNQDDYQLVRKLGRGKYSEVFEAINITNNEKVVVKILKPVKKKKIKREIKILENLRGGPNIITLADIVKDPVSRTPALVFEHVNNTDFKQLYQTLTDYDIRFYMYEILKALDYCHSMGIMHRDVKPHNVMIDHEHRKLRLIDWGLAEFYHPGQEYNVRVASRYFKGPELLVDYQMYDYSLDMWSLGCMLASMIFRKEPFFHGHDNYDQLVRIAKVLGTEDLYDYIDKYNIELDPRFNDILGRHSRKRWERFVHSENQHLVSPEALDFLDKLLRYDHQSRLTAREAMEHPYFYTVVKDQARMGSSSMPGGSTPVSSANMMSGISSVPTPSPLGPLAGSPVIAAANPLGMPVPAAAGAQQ
T3 sequence (P52333 822-1111 limits assumed): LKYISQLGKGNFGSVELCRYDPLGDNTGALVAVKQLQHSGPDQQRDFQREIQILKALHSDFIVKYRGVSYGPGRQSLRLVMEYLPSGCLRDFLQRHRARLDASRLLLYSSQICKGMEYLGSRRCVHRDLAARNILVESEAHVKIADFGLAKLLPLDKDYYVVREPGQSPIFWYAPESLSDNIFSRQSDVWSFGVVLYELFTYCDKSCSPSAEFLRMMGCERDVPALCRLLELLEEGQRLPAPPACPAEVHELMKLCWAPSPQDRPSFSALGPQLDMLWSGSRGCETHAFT

COc1ccc2c(c1)[nH]c1c(CO)nccc12 [Compound 2-2, 1-Hydroxymethyl-7-Methoxy-9H-β-Carboline]
% DMSO Ctrl (HIPK2): no inhibition
% DMSO Ctrl (VPS34): no inhibition
remaining binding at 10 µM [1]: 99%
remaining binding at 10 µM (PIK3CG): 44%
remaining binding at 10 µM (FLT3(D835V)): 37%
% DMSO Ctrl (CSNK1G2): no inhibition
NFAT2 translocation to nucleus [2]: drove NFAT2 translocation to nucleus
remaining binding at 10 µM (PIM3): 77%
% DMSO Ctrl (HIPK3): no inhibition
% DMSO Ctrl (IRAK1): no inhibition
% DMSO Ctrl (CSNK2A1): no inhibition
beta cell toxicity ([3]; at 30 μM): did not cause toxicity

COc1ccc2c(c1)[nH]c1c(Cl)nccc12 [Compound 1-5, 1-Chloro-7-Methoxy-9H-β-Carboline]
human β-cell proliferation (in words) [3, 4]: very good human β-cell proliferation
human β-cell proliferation (in words) ([3]; concentration not given): human β-cell proliferation comparable to that of harmine

COc1ccc2c3ccnc(C)c3n(Cc3noc(N)n3)c2c1 [Compound 20-38a, 1-(1-(7-methoxy-1-methyl-β-carbolin-9-yl)methyl)-5-amino-1,2,4-oxadiazole]
IC50 (DYRK1A): 138 nM

COc1ccc2c(c1)[nH]c1c(N3CCCC3c3ccccc3)nccc12 (stereo not drawn) [Compound 1-6d, 1-(2-Phenylpyrrolidin-1-yl)-7-Methoxy-9H-β-Carboline]
human β-cell proliferation (in words) ([3]; concentration not given): did not show any β-cell proliferation

COc1ccc2c3ccnc(C)c3n(CCCCc3noc(N)n3)c2c1 [Compound 20-38c, 5-(5-(7-methoxy-1-methyl-β-carbolin-9-yl)butyl)-5-amino-1,2,4-oxadiazole]
IC50 (DYRK1A): 103 nM

COc1ccc2c(c1)[nH]c1c(N3CCC3)nccc12 [Compound 1-6a, 1-(Azetidin-1-yl)-7-Methoxy-9H-β-Carboline]
human β-cell proliferation (in words) ([3]; concentration not given): did not show any β-cell proliferation

COc1ccc2c(c1)[nH]c1c(N3CCCC3)nccc12 [Compound 1-6b, 1-(Pyrrolidin-1-yl)-7-Methoxy-9H-β-Carboline]
human β-cell proliferation (in words) ([3]; concentration not given): did not show any β-cell proliferation

COc1ccc2c3ccnc(C)c3n(Cc3ccccc3)c2c1 [Compound 20-1x, 1-(7-Methoxy-1-methyl-β-carbolin-9-yl)-1-phenylmethane]
IC50 (DYRK1A): 275 nM

4-(7-Methoxy-1-methyl-β-carbolin-9-yl)propionitrile [Compound 20-1o]
Human β-Cell proliferation ([3]; 10 μM): 1 (10)

Cc1nccc2c1[nH]c1cc(OCCCCCC(N)=O)ccc12 [Compound 10-3e, 6-(7-oxy-1-methyl-9-H-b-carbolin)hexanamide]
Human β-Cell proliferation ([3]; 10 μM): 0.2 (10)
human β-cell proliferation (in words) ([3]; concentration not given): reduced jβ-cell proliferation compared to harmine

C=CCn1c2cc(OC)ccc2c2ccnc(C)c21 [Compound 20-1t, 3-(7-Methoxy-1-methyl-β-carbolin-9-yl)-propan-1-ene]
IC50 (DYRK1A): 42 nM

Ethyl 4-(7-Methoxy-1-methyl-β-carbolin-9-yl)butanecarboximidate hydrochloride [Compound 20-22]
Human β-Cell proliferation ([3]; 10 μM): 0.8 (10)

COc1ccc2c3ccnc(C)c3n(CCc3noc(N)n3)c2c1 [Compound 20-38b, 3-(3-(7-methoxy-1-methyl-β-carbolin-9-yl)ethyl)-5-amino-1,2,4-oxadiazole]
IC50 (DYRK1A): 66 nM

COc1ccc2c3ccnc(C)c3n(CCCC(N)=O)c2c1 [Compound 20-2c, 4-(7-Methoxy-1-methyl-β-carbolin-9-yl)butanamide]
% DMSO Ctrl (FLT3(ITD,D835V)): 38 % DMSO Ctrl
% DMSO Ctrl (FLT3(ITD)): 57 % DMSO Ctrl

COc1ccc2c3ccnc(C)c3n(CCC(C)(C)C(N)=O)c2c1 [Compound 20-40, 2,2-dimethyl-4-(7-Methoxy-1-methyl-β-carbolin-9-yl)butanamide]
IC50 (DYRK1A): 20 nM

COc1ccc2c(c1)[nH]c1c(C(C)=O)nccc12 [Compound 3-2, 1-acetyl-7-methoxy-9H-β-carboline]
human β-cell proliferation (in words) [3, 4]: reduced β-cell proliferation
human β-cell proliferation (in words) ([3]; 30 μM): proliferation in the range comparable to harmine
human β-cell proliferation (in words) ([3]; concentration not given): human β-cell proliferation comparable to that of harmine

C#CCCn1c2cc(OC)ccc2c2ccnc(C)c21 [Compound 20-23b, 4-(7-Methoxy-1-methyl-β-carbolin-9-yl)-but-1-yne]
IC50 (DYRK1A): 33 nM

COc1ccc2c(c1)[nH]c1c(N3CCCC3Cc3ccccc3)nccc12 (stereo not drawn) [Compound 1-6f, 1-(2-Benzylpyrrolidin-1-yl)-7-Methoxy-9H-β-Carboline]
human β-cell proliferation (in words) ([3]; concentration not given): did not show any β-cell proliferation

CCCC(C)NC(=O)C(C)(C)CCn1c2cc(OC)ccc2c2ccnc(C)c21 (stereo not drawn) [Compound 20-10l, N-(1-methylbutyl)-4-(7-Methoxy-1-methyl-β-carbolin-9-yl)-α,α-dimethylbutanamide]
IC50 (DYRK1A): 77 nM

COc1ccc2c3ccnc(C)c3n(CCc3ccccc3)c2c1 [Compound 20-1y, 2-(7-Methoxy-1-methyl-β-carbolin-9-yl)-1-phenylethane]
IC50 (DYRK1A): 31 nM

COCCn1cc(CCCn2c3cc(OC)ccc3c3ccnc(C)c32)nn1 [Compound 20-24b, 4-(3-(7-Methoxy-1-methyl-β-carbolin-9-yl)propyl)-1-(2-methoxyethyl)-1,2,3-triazole]
IC50 (DYRK1A): 437 nM
